# Measured values taken from patent publication US11684614B2, “Formulations of hydroxypyridonate actinide/lanthanide decorporation agents” (priority 2017, dated 2023).
# Where “and” joins values, the source holds several entries; their conditions need not be identical. Identical values can stand only once.
# Assay: Repeated-treatment efficacy for removing an intravenous dose of 238Pu (excretion, tissue retention, clinical observations), female and male arms;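 as to % Recovered Dose - ART: ART is abdominal tissue remainder with GI tract reproductive organs spleen bladder fat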
# Assay type: in vivo, Swiss-Webster mice
# Method: The objective of this study was to characterize the efficacy of 3,4,3-L1(1,2-HOPO) at enhancing elimination from an internal plutonium burden in female and male Swiss-Webster mice administered a soluble citrate complex of ^238Pu and treated multiple times, starting at 24 hours after the exposure. Efficacy was evaluated by comparing the tissue contents, urinary and fecal excretions of ^238Pu in treated animals versus untreated animals.
# The medical countermeasure 3,4,3-L1(1,2-HOPO) was administered parenterally (ip) or orally (po) via consecutive injections or gavages (six daily or twelve twice daily) starting at 24 hours post contamination at the following four selected doses: 30 μmol/kg ip, 150 μmol/kg po, 300 μmol/kg po, and 600 μmol/kg po (equivalent to respective approximate human doses range of […], using the accepted conversion system of mouse doses into human equivalent doses—HED—based on body surface area). Oral doses also included the permeability enhancer selected during formulation development work.
# • Challenge isotope: ^238Pu • Challenge dose: 25 nCi (i.e., approximately 0.8 μCi/kg) • Route of contamination: Intravenous (iv) tail-vein • Route of treatment: Intraperitoneal Injection (ip) or Oral (po) • Frequency of treatment: Multiple (once- or twice-daily for 6 days) doses, starting 24 hr postcontamination • Treatment dose calculation: Dose calculations (mg/kg or μmol/kg) for the decorporation agent were based on the individual body weight measured after contamination. • Study Duration: 11 days, in-life
# c. […] Test article and control dose formulations were prepared within 1 day of dose administration, by weighing out the appropriate amount of test article, dispersing in vehicle. For ip solutions, the test article was used alone, while for oral suspensions, a mixture of test article and excipient (90:10, w:w) was used. The pH was adjusted to 7.0-7.4 for ip administration and 5.0-5.5 for oral administration with sterile NaOH. Dose formulations were prepared at room temperature and filter-sterilized. • Storage: 2-8° C.; refrigerated; protected from light. • Characterization: The concentration of each test article formulation was verified by high-performance liquid chromatography-mass spectrometry. • Test Article Handling: Test, reference, and control article formulations were handled with the use of eye protection, gloves, and a protective laboratory coat. • Correct Dose Assurance: The test article was weighed with calibrated balances. The administration of each dose formulation was properly documented, and the amount administered to each animal recorded.
# e. Experimental Procedures (In-Life Evaluations and Euthanasia) • Contamination: Single administration by intravenous (iv) tail-vein injection (0.2 mL injection volume) under isoflurane anesthesia. Three standard 0.2 mL injections were performed into polyethylene bottles and pre-loaded with aliquots of concentrated nitric acid on each injection day. Six female and six male mice were culled for necropsy 1 hr post-contamination and were used as standards. A11 standards were processed and counted together with the final samples to allow verification of the contamination dose. • Dose Administration: Single administration by intraperitoneal injection (ip) or oral gavage (po) under isoflurane anesthesia. • Mortality/Morbidity: Assessed at least once daily. • Clinical Observations: Recorded once daily (4 hr post-dose on day of treatment), or more often as clinical signs warranted. […]
# [1] = female animals, D-7 necropsy, individual animals, listed as 3,4,3-LI(1,2-HOPO)
# [2] = female animals, D-11 necropsy, individual animals, listed as 3,4,3-LI(1,2-HOPO)
# [3] = male animals, Day 7 necropsy, animal group B, listed as 3,4,3-LI(1,2-HOPO)
smiles,measurement,setting,value
"O=C(NCCCN(CCCCN(CCCNC(=O)c1cccc(=O)n1O)C(=O)c1cccc(=O)n1O)C(=O)c1cccc(=O)n1O)c1cccc(=O)n1O [3,4,3-L1(1,2-HOPO)]",% Recovered Dose-Female Animals-Urine per Day-Day 11 Necropsy,"animal group M, day 11, female mice, listed as 3,4,3-LI(1,2-HOPO)",0.44% and 0.82% and 0.63% and 0.58% and 0.53% and 1.12% and 0.91% and 0.93%
same,238Pu excretion path,female and male mice,predominantly through feces
same,adverse effect,"female and male mice, parenteral or oral, all dose levels",No adverse effect
same,% Recovered Dose - Kidney,"female animals, D-7 necropsy, individual animals (ID = group letter + number), dose/regimen of group not given, listed as 3,4,3-LI(1,2-HOPO)",0.27% (2×) and 0.15% and 0.24% (2×) and 0.17% and 0.31% and 0.14% and 0.09% and 0.28% (2×) and 0.43% and 0.12% and 0.21% and 0.22% (2×)
same,% Recovered Dose - ART,[1],1.01% and 1.36% and 1.12% (2×) and 1.30% and 1.21% and 1.29% and 1.37% and 1.20% and 0.98% (2×) and 1.39% and 1.24% (2×) and 1.16% and 1.59%
same,% Recovered Dose - Combined Body,[1],34.79% and 38.75% and 40.32% and 37.43% and 36.37% and 39.78% and 31.50% and 26.07% and 36.12% and 35.98% and 41.72% and 33.15% and 35.58% and 25.26% and 33.24% and 36.43%
same,% Recovered Dose - Combined Excreta,[1],65.21% and 61.25% and 59.68% and 62.57% and 63.63% and 60.22% and 68.50% and 73.93% and 63.88% and 64.02% and 58.28% and 66.85% and 64.42% and 74.74% and 66.76% and 63.57%
same,% Recovered Dose - Liver,[1],8.04% and 11.52% and 14.05% and 17.71% and 5.50% and 9.28% and 7.15% and 5.47% and 15.03% and 5.40% and 15.12% and 5.35% and 15.19% and 6.77% and 11.56% and 16.40%
same,% Recovered Dose - SKEL,[1],23.83% and 24.03% and 23.40% and 16.40% and 28.04% and 26.98% and 21.55% and 17.57% and 18.05% and 27.21% and 23.15% and 24.86% and 17.48% and 15.65% and 19.07% and 16.03%
same,% Recovered Dose - SOFT,[1],1.63% (2×) and 1.69% and 1.50% and 1.75% and 1.54% and 2.00% and 1.36% and 1.57% and 1.61% and 2.12% and 1.58% and 1.55% and 1.38% and 1.41% and 2.13%
same,% Recovered Dose - Total Feces,[1],37.37% and 25.66% and 41.03% and 28.59% and 40.61% and 26.74% and 36.25% and 39.09% and 25.39% and 34.86% and 39.63% and 37.46% and 28.91% and 37.33% and 32.34% and 24.62%
same,% Recovered Dose - Total Urine,[1],27.84% and 35.60% and 18.65% (2×) and 33.98% and 23.02% and 33.48% and 32.25% and 34.83% and 38.49% and 29.16% and 29.39% and 35.51% and 37.41% and 34.43% and 38.95%
same,% Recovered Dose - Combined Body,[2],17.98% and 75.50% and 20.85% and 19.27% and 21.23% and 20.95% and 24.13% and 19.99% and 25.13% and 24.87% and 27.98% and 26.74% and 30.36% and 31.29% and 29.30% and 29.18% and 27.61% and 23.71% and 21.16% and 25.90% and 28.33% and 29.52% and 30.59% and 27.44%
same,% Recovered Dose - Combined Excreta,[2],82.02% and 24.50% and 79.15% and 80.73% and 78.77% and 79.05% and 75.87% and 80.01% and 74.87% and 75.13% and 72.02% and 73.26% and 69.64% and 68.71% and 70.70% and 70.82% and 72.39% and 76.29% and 78.84% and 74.10% and 71.67% and 70.48% and 69.41% and 72.56%
same,% Recovered Dose - GI Tract,[2],0.65% and 1.84% and 0.77% and 0.48% and 0.55% and 0.52% and 0.62% and 0.54% and 0.97% and 0.80% (2×) and 1.10% and 0.99% and 0.95% and 1.50% and 0.96% and 0.87% and 0.70% and 0.91% and 0.68% and 0.50% and 1.19% and 0.81% and 1.03%
same,% Recovered Dose - Kidney,[2],0.09% and 1.35% and 0.13% (2×) and 0.08% (2×) and 0.18% and 0.14% (4×) and 0.05% and 0.11% (2×) and 0.25% and 0.16% (2×) and 0.26% and 0.12% and 0.20% (2×) and 0.15% and 0.10% (2×)
same,% Recovered Dose - Liver,[2],4.74% and 36.77% and 4.16% and 1.79% and 1.96% and 2.48% and 3.25% and 1.16% and 8.54% and 3.78% and 4.98% and 7.97% and 5.01% and 6.46% and 4.53% and 6.86% and 4.50% and 3.03% and 5.22% and 3.96% and 5.73% and 8.43% and 7.92% and 6.01%
same,% Recovered Dose - Soft Tissue,[2],1.29% (2×) and 3.31% and 0.99% and 1.94% (2×) and 1.49% and 1.62% and 1.17% and 1.66% and 1.55% and 2.66% and 2.10% and 2.26% and 1.73% and 2.18% and 2.32% and 2.21% and 2.05% and 2.16% and 2.59% and 1.56% and 1.48% and 2.11%
same,% Recovered Dose - Total Bone,[2],11.21% and 32.22% and 14.80% and 15.63% and 16.61% and 16.38% and 18.50% and 17.05% and 13.83% and 18.64% and 18.99% and 15.53% and 21.88% and 21.46% and 21.52% and 18.92% and 19.89% and 17.79% and 12.72% and 18.57% and 20.43% and 17.82% and 20.28% and 18.12%
same,% Recovered Dose - Total Feces,[2],38.27% and 13.76% and 41.57% and 45.81% and 39.56% and 45.73% and 37.01% and 44.68% and 36.23% and 51.20% and 30.57% and 33.16% and 39.74% and 37.31% and 37.09% and 35.70% and 28.28% and 37.36% and 36.24% and 36.31% and 36.22% and 32.51% and 34.94% and 35.74%
same,% Recovered Dose - Total Urine,[2],43.75% and 10.74% and 37.58% and 34.92% and 39.21% and 33.32% and 38.85% and 35.33% and 38.64% and 23.93% and 41.45% and 40.10% and 29.89% and 31.40% and 33.61% and 35.12% and 44.11% and 38.93% and 42.60% and 37.79% and 35.45% and 37.97% and 34.47% and 36.82%
same,% Recovered Dose - Feces per Day - Day 2,"female animals, Day 7 necropsy, Day 2, listed as 3,4,3-LI(1,2-HOPO)",13.36% and 8.81% and 9.40%
same,% Recovered Dose - Feces per Day - Day 3,"female animals, Day 7 necropsy, Day 3, listed as 3,4,3-LI(1,2-HOPO)",5.58% and 1.92% and 3.39%
same,% Recovered Dose - Feces per Day - Day 4,"female animals, Day 7 necropsy, Day 4, listed as 3,4,3-LI(1,2-HOPO)",3.61% and 2.93% and 2.98%
same,% Recovered Dose - Feces per Day - Day 5,"female animals, Day 7 necropsy, Day 5, listed as 3,4,3-LI(1,2-HOPO)",2.85% and 2.91% and 2.16%
same,% Recovered Dose - Feces per Day - Day 6,"female animals, Day 7 necropsy, Day 6, listed as 3,4,3-LI(1,2-HOPO)",1.63% and 2.50% and 1.90%
same,% Recovered Dose - Feces per Day - Day 7,"female animals, Day 7 necropsy, Day 7, listed as 3,4,3-LI(1,2-HOPO)",1.39% and 1.95% and 1.75%
same,increase in total 238Pu excretion compared to the control groups,"female, 6 daily oral treatments, 600 μmol/kg, 11 days post-contamination",up to 143%
same,tissue content of 238Pu compared to saline control group,"female, all analyzed tissues, all dosing regimens",large reductions
same,full body content of 238Pu compared to saline control groups,"female, all treated groups",significant reductions
same,decrease in body burden compared to the control groups,"female, once-daily oral 600 μmol/kg, 11 days post-contamination",up to 45%
same,decorporation efficacy relative to parenteral DTPA,"female, oral once-daily 300 μmol/kg",equivalent to that of parenteral treatment with DTPA
same,238Pu elimination enhancement,"female, oral twice-daily 150 and 300 μmol/kg or once-daily 300 and 600 μmol/kg, 7 days post-contamination",significant
same,"% Recovered Dose Urine per Day, Day 1",[3],20.65% and 15.62% and 19.53% and 17.05%
same,"% Recovered Dose Urine per Day, Day 2",[3],2.02% and 2.81% and 2.18% and 1.96%
